Data set [1] in a line: Cytotoxicity against MRC-5 cells. In kind it is cell-based, human.
For data set [2], the system named is Plasmodium falciparum FCR3 strain. In words: Antimalarial activity in vitro against drug-sensitive P. falciparum FCR3 strain. Conditions: for IC50: Plasmodium falciparum; for Selectivity Index MRC-5/FCR3: ratio of IC50 MRC-5 to IC50 FCR3. The class given is cell-based. The text has this:
(§1) The antimalarial activities of psammaplysin F (3), ceratinadin E (1), and ceratinadin F (2) against a drug-resistant and a drug-sensitive strains of Plasmodium falciparum (K1 and FCR3 strains, respectively) were examined, see Table 2 [16].

In data set [3] the test system is Plasmodium falciparum K1 strain. In words: Antimalarial activity in vitro against drug-resistant P. falciparum K1 strain. The class given is cell-based. The settings on record: for IC50: Plasmodium falciparum; for Selectivity Index MRC-5/K1: ratio of IC50 MRC-5 to IC50 K1.
Description: as §1

Data set [4] concerns MRC-5 (normal human embryonic lung fibroblast). In words: Cytotoxicity against MRC-5 cells. The class given is cell-based.
The mark [5] stands for this setting: human, MRC-5 cells (normal human embryonic lung fibroblasts).
Setting [6] is: drug-sensitive P. falciparum strain FCR3, in vitro, read-out: Antimalarial Activity FCR3, IC50.
The mark [7] stands for this setting: drug-resistant P. falciparum strain K1, in vitro, read-out: Antimalarial Activity K1, IC50.

For orientation: IC50 means the midpoint of a concentration-inhibition curve.

Values after ≈ are worked out from the molar mass of the structure shown. Like-named read-outs stand apart in the source and are kept apart here. Some results are limits rather than exact numbers.

As for `C[C@@H]1CC[C@H]2[C@@H](C)C(=O)O[C@@H]3O[C@@]4(C)CC[C@@H]1[C@]32OO4` [Artemisinin, reference compound], the half-inhibitory concentration (IC50) in data set [1] (setting [5]) was > 14.1 µg/mL; in data set [2] (setting [6]), 0.0088 µg/mL (≈ 0.0312 µM); in data set [3] (setting [7]) it was 0.01 µg/mL (≈ 0.0354 µM). Besides, the “Selectivity Index MRC-5/FCR3” value in data set [2] is recorded as >1604.5. Further, the “Selectivity Index MRC-5/K1” value in data set [3] is reported as >1412.
As to psammaplysin F [Psammaplysin F (3)], the “Cytotoxicity MRC-5, IC50” value in data set [4] is 12.65 µg/mL. In addition, the “Antimalarial Activity FCR3, IC50” value in data set [2] (drug-sensitive P. falciparum strain FCR3, in vitro) is 2.45 µg/mL. For the same compound, the “Antimalarial Activity K1, IC50” value in data set [3] (drug-resistant P. falciparum strain K1, in vitro) was 3.77 µg/mL.
Consider `CCN(CC)CCCC(C)Nc1ccnc2cc(Cl)ccc12` (centres unmarked) [Chloroquine, reference compound], for which the IC50 was > 25.8 µg/mL in data set [1] (normal human embryonic lung fibroblast); 0.035 µg/mL (≈ 0.109 µM) in data set [2] (FCR3, read-out: Antimalarial Activity FCR3, IC50); 0.34 µg/mL (≈ 1.06 µM) in data set [3] (K1, read-out: Antimalarial Activity K1, IC50).
With `CNCCc1cc(Br)c(OCCCNC(=O)N(C)CCc2cc(Br)c(OCCCNC(=O)N(C)CCc3cc(Br)c(OCCCNC(=O)C4=NO[C@]5(CC(Br)=C(OC)C(Br)=CO5)[C@@H]4O)c(Br)c3)c(Br)c2)c(Br)c1` [Ceratinadin F (2), ceratinadin F], the 50% inhibitory concentration (IC50) in data set [1] (setting [5]) is > 50 µg/mL; in data set [3] (setting [7]), > 12.5 µg/mL. Moreover, in data set [3] (P. falciparum in vitro, strain not named, only K1 examined for this compound), the “antimalarial activity (in words)” value is “did not show significant antimalarial activity”. Moreover, the “Selectivity Index MRC-5/K1” value in data set [3] is reported as >4.
With `CNCCc1cc(Br)c(OCCCNC(=O)N(C)CCc2cc(Br)c(OCCCNC(=O)C3=NO[C@]4(CC(Br)=C(OC)C(Br)=CO4)[C@@H]3O)c(Br)c2)c(Br)c1` [Ceratinadin E (1), ceratinadin E], the IC50 in data set [1] (setting [5]) worked out at 16 µg/mL (≈ 14 µM); in data set [2] (setting [6]), 0.77 µg/mL (≈ 0.676 µM); in data set [3] (setting [7]) it was 1.03 µg/mL (≈ 0.904 µM). In addition, the “Selectivity Index MRC-5/FCR3” value in data set [2] is 20.8. In data set [3], the “Selectivity Index MRC-5/K1” value was found to be 15.5.
